Patent US20130253019A1, “LYSOPHOSPHATIDIC ACID RECEPTOR ANTAGONISTS FOR THE TREATMENT OF CONDITIONS OR DISEASES OF THE EYE” (priority 2010, published 2013)

Legend:
LPA4 = LPA4 (Homo sapiens, UniProt Q99677); assay: LPA4 Ca flux assay; format: cell-based
Human LPA1 = molecular target: T1, Human LPA1 (Homo sapiens, UniProt Q92633); assay: LPA1 calcium flux assay; format: cell-based; settings: CHO cells expressing human LPA1, 10 nM LPA; read-out: Ca Flux IC50 LPA1
T1 construct: the full-length cDNA for human LPA1 was obtained by PCR of the reverse transcription reaction; expressed in transfected cells
Description: A 1.1 kb cDNA encoding the human LPA1 receptor was cloned from human lung. Human lung RNA (Clontech Laboratories, Inc. USA) was reverse transcribed using the RETROscript kit (Ambion, Inc.) and the full-length cDNA for human LPA1 was obtained by PCR of the reverse transcription reaction. The nucleotide sequence of the cloned human LPA1 was determined by sequencing and confirmed to be identical to the published human LPA1 sequence (An et al. Biochem. Biophys. Res. Commun. 231:619 (1997). The cDNA was cloned into the pcDNA5/FRT expression plasmid and transfected in CHO cells using lipofectamine 2000 (Invitrogen Corp., USA). Clones stably expressing human LPA1 were selected using hygromycin and identified as cells that show Ca-influx in response to LPA.
(§1) Human LPA1 or LPA3 expressing CHO cells are seeded at 20,000-45,000 cells per well in a 96-well poly-D-lysine coated plate one or two days before the assay. Prior to the assay, the cells are washed once with PBS and then cultured in serum-free media for at least 6 hrs and up to 24 hrs. On the day of the assay, a calcium indicator dye (Calcium 5, Molecular Devices) in assay buffer (HBSS with Ca^2+ and Mg^2+ and containing 20 mM Hepes and 0.3% fatty-acid free human serum albumin) is added to each well and incubation continued for 1 hour at room temperature. 10 μl of test compounds in 2.5% DMSO are added to the cells and incubation continued at room temperature for 30 minutes. Cells are the stimulated by the addition of 10 nM LPA and intracellular Ca^2+ measured using the Flexstation 3 (Molecular Devices). IC50s are determined using Symyx Assay Explorer analysis of drug titration curves.

human LPA2 = molecular target: T2, human LPA2 (Homo sapiens, UniProt Q9HBW0); assay: LPA2 calcium flux assay; format: cell-based; settings: BT-20 cells or B103 cells transiently expressing human LPA2; read-out: Ca Flux IC50 LPA2
T2 construct: expressed in transfected cells; host or cells: B103 cells (transient), or alternatively BT-20 human breast cancer cells (endogenous)
Description: An expression vector encoding the human LPA2 cDNA was transiently transfected into B103 cells using Lipofectamine™ 2000 (Invitrogen) following the manufacturers instruction. On the day before the assay, 30,000-35,000 cells/well were seeded together with 0.2 μl lipofectamine 2000 and 0.2 μg human LPA2 expression vector in 96-well Poly-D-Lysine coated black-wall clear-bottom plates (BD BioCoat) in DMEM+10% FBS. Following an overnight culture, cells were washed once with PBS then cultured in serum-free media for 4 hours prior to start of the calcium flux assay.
LPA2 calcium flux is measured using at least one of two different assays. In one assay, BT-20 human breast cancer cells are seeded at 25,000-35,000 cells per well in 150 μl complete media on Poly-D-Lysine coated black-wall clear-bottom plates. Following an overnight culture, cells are washed once with PBS then serum starved for 4-6 hours prior to the assay. On the day of the assay, a calcium indicator dye (Calcium 5, Molecular Devices) in assay buffer (HBSS with Ca^2+ and Mg^2+ and containing 20 mM Hepes and 0.3% fatty-acid free human serum albumin) is added to each well and incubation continued for 15 minutes at 37° C. 25 μl of test compounds in 2.5% DMSO are added to the cells and incubation continued at 37° C. for 15-30 minutes. Cells are the stimulated by the addition of 100 nM LPA and intracellular Ca^2+ measured using the Flexstation 3 (Molecular Devices). IC50s are determined using Symyx Assay Explorer analysis of drug titration curves In the second assay, B103 cells transiently expressing huma LPA2 are serum starved for 4 hours. A calcium indicator dye (Calcium 4, Molecular Devices) in assay buffer (HBSS with Ca^2+ and Mg^2+ and containing 20 mM Hepes and 0.3% fatty-acid free human serum albumin) is then added to each well and incubation continued for 1 hour at 37° C. 10 μl of test compounds in 2.5% DMSO are added to the cells and incubation continued at room temperature for 30 minutes. Cells are the stimulated by the addition of 10 nM LPA and intracellular Ca^2+ measured using the Flexstation 3 (Molecular Devices). IC50s are determined using Symyx Assay Explorer analysis of drug titration curves.

LPA5 = LPA5 (Homo sapiens, UniProt Q9H1C0); assay: LPA5 Ca flux assay; format: cell-based
Human LPA3 = molecular target: T3, Human LPA3 (Homo sapiens, UniProt Q9UBY5); assay: LPA3 calcium flux assay; format: cell-based; settings: CHO cells expressing human LPA3, 10 nM LPA; read-out: Ca Flux IC50 LPA3
T3 construct: The full-length cDNA fragment for human LPA3 was obtained by PCR from the vector; expressed in transfected cells; cDNA from the Missouri S&T cDNA Resource Center
T3 sequence (Q9UBY5 1-353): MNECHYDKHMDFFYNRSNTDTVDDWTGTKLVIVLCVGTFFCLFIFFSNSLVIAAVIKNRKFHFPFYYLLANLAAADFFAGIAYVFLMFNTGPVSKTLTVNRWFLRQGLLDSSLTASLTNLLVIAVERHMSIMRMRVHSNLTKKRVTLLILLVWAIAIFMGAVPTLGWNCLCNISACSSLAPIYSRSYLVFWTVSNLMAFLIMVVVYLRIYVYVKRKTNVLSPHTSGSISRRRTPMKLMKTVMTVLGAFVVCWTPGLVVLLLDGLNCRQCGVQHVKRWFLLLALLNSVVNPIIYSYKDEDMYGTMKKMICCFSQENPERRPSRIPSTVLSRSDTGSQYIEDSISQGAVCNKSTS
Description: A vector containing the human LPA3 receptor cDNA was obtained from the Missouri S&T cDNA Resource Center (www.cdna.org). The full-length cDNA fragment for human LPA3 was obtained by PCR from the vector. The nucleotide sequence of the cloned human LPA3 was determined by sequencing and confirmed to be identical to the published human LPA3 sequence (NCBI accession number NM_012152). The cDNA was cloned into the pcDNA5/FRT expression plasmid and transfected in CHO cells using lipofectamine 2000 (Invitrogen Corp., USA). Clones stably expressing human LPA3 were selected using hygromycin and identified as cells that show Ca-influx in response to LPA.
as §1

CNV lesion = settings: po, 30 mg/kg, 336 h

T2 sequence (Q9HBW0 whole entry): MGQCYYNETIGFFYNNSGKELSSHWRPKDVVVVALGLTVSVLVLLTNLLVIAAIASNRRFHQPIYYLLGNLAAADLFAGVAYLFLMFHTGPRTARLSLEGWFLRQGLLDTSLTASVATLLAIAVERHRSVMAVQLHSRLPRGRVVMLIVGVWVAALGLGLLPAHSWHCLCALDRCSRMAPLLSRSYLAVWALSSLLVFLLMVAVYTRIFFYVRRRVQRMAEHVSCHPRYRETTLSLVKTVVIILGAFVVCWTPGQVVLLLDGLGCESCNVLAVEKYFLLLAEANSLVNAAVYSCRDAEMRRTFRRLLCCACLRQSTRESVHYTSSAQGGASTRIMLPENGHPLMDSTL
Sequence of LPA4 (Q99677 whole entry, species assumed): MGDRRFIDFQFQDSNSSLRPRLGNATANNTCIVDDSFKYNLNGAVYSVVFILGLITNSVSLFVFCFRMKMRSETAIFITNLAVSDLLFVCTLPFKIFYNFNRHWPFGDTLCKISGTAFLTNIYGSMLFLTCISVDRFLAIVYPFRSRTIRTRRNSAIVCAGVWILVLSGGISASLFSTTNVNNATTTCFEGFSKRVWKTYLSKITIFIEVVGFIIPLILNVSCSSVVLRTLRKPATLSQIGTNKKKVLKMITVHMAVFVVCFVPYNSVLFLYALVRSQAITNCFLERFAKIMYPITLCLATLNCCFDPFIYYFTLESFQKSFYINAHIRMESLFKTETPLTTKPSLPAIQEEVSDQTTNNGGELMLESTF
Sequence of LPA5 (Q9H1C0 whole entry, species assumed): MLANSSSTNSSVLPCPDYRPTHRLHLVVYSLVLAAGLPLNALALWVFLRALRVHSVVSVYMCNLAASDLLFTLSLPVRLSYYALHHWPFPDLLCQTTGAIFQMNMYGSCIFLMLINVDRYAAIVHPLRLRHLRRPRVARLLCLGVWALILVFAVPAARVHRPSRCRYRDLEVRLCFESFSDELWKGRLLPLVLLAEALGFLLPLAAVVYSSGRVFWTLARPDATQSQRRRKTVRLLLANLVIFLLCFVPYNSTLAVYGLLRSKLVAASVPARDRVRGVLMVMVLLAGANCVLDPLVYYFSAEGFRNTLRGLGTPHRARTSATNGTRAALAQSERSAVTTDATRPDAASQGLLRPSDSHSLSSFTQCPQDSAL
T1 sequence (Q92633 whole entry): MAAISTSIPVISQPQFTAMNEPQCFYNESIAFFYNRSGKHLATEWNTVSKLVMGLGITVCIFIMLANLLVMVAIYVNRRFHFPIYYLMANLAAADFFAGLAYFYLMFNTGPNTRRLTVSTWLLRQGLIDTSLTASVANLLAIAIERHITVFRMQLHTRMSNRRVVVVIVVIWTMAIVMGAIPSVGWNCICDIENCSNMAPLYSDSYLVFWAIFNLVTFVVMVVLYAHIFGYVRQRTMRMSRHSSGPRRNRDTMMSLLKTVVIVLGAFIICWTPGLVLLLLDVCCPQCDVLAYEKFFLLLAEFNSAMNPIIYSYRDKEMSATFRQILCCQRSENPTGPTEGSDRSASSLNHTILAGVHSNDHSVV

| SMILES | IC50 (LPA4) | IC50 (Human LPA1) | IC50 (human LPA2) | IC50 (LPA5) | IC50 (Human LPA3) | decrease of CNV lesion volume (CNV lesion) |
| --- | --- | --- | --- | --- | --- | --- |
| Cc1noc(-c2ccc(-c3ccc(CC(=O)O)cc3)cc2)c1NC(=O)O[C@H](C)c1ccccc1 [Compound A, (R)-2-(4′-(3-methyl-4-((1-phenylethoxy)carbonylamino)isoxazol-5-yl)biphenyl-4-yl)acetic acid] | > 1 µM | < 0.2 µM | > 1 µM | > 1 µM | > 1 µM | – |
| Cc1noc(-c2ccc(-c3ccc(C4(C(=O)O)CC4)cc3)cc2)c1NC(=O)O[C@H](C)c1ccccc1 [Compound B, (R)-1-(4′-(3-methyl-4-((1-phenylethoxy)carbonylamino)isoxazol-5-yl)biphenyl-4-yl)cyclopropanecarboxylic acid] | > 1 µM | < 0.2 µM | > 1 µM | > 1 µM | > 1 µM | 11% |
| Cc1noc(-c2ccc(-c3ccc(CC(=O)O)cc3)cc2)c1NC(=O)O[C@H](C)c1ccccc1Cl [Compound C, (R)-2-(4′-(4-((1-(2-chlorophenyl)ethoxy)carbonylamino)-3-methylisoxazol-5-yl)biphenyl-4-yl)acetic acid] | > 1 µM | < 0.2 µM | > 1 µM | > 1 µM | > 1 µM | – |
| Cc1noc(-c2ccc(-c3ccc(C4(C(=O)NS(C)(=O)=O)CC4)cc3)cc2)c1NC(=O)O[C@H](C)c1ccccc1 [Compound D, {5-[4′-(1-Methanesulfonylaminocarbonyl-cyclopropyl)-biphenyl-4-yl]-3-methyl-isoxazol-4-yl}-carbamic acid (R)-1-phenyl-ethyl ester] | > 1 µM | < 0.2 µM | 0.2 to 1 µM | > 1 µM | > 1 µM | – |
| Cc1noc(-c2ccc(-c3ccc(C4(C(=O)O)CC4)cc3)cc2)c1NC(=O)O[C@H](C)c1ccccc1Cl [Compound E, 1-(4′-{4-[(R)-1-(2-Chloro-phenyl)-ethoxycarbonylamino]-3-methyl-isoxazol-5-yl}-biphenyl-4-yl)-cyclopropanecarboxylic acid] | – | < 0.2 µM | > 1 µM | > 1 µM | 0.2 to 1 µM | – |
| C[C@@H](OC(=O)Nc1cnoc1-c1ccc(-c2ccc(C3(C(=O)O)CC3)cc2)cc1)c1ccccc1 [Compound F, 1-{4′-[4-((R)-1-Phenyl-ethoxycarbonylamino)-isoxazol-5-yl]-biphenyl-4-yl}-cyclopropanecarboxylic acid] | > 1 µM | < 0.2 µM | – | – | > 1 µM | – |
| Cc1noc(-c2ccc(-c3ccc(C4(c5nc(=O)o[nH]5)CC4)cc3)cc2)c1NC(=O)O[C@H](C)c1ccccc1 [Compound G, (3-Methyl-5-{4′-[1-(5-oxo-2,5-dihydro-[1,2,4]oxadiazol-3-yl)-cyclopropyl]-biphenyl-4-yl}-isoxazol-4-yl)-carbamic acid (R)-1-phenyl-ethyl ester] | > 1 µM | < 0.2 µM | > 1 µM | > 1 µM | > 1 µM | – |
| Cc1noc(-c2ccc(-c3ccc(C4(c5nnn[nH]5)CC4)cc3)cc2)c1NC(=O)O[C@H](C)c1ccccc1 [Compound H, (3-Methyl-5-{4′-[1-(1H-tetrazol-5-yl)-cyclopropyl]-biphenyl-4-yl}-isoxazol-4-yl)-carbamic acid (R)-1-phenyl-ethyl ester] | > 1 µM | < 0.2 µM | > 1 µM | > 1 µM | > 1 µM | – |
